Data on 25 compounds can be found in article PMC9146500, “New Quinoline–Urea–Benzothiazole Hybrids as Promising Antitubercular Agents: Synthesis, In Vitro Antitubercular Activity, Cytotoxicity Studies, and In Silico ADME Profiling” (Pharmaceuticals, 2022).

Data set [1] concerns Mycobacterium tuberculosis H37Rv pMSp12::GFP. Briefly: microbe, parasite or virus in culture. The data set is classed as cell-based. The note with it: Mtb H37Rv.
The test system is the same in data set [2]. In words: microbe, parasite or virus in culture. The data set is classed as cell-based. The note with it: Mtb H37Rv, protein-rich media, 7 days, read-out: MIC90 7H9/ADC/GLU/Tw 7 Days.
The nature of data set [3]: MTT cytotoxicity assay. The note with it: human; for IC20 at 24 h: IC20, HepG2, 24 h, MTT, concentration at which cells retain 80% viability, extrapolated from the dose–response curve.
[4] abbreviates: Mycobacterium tuberculosis, H37RV, 168 h, protein-poor media, 7 days, read-out: MIC90 7H9/CAS/GLU/Tx 7 Days.
Setting [5] is: Mycobacterium tuberculosis, H37RV, 168 h.
Setting [6] is: both media (CAS and ADC) or medium not given.
[7] abbreviates: Mycobacterium tuberculosis, 168 h, protein-poor media, 7 days, read-out: MIC90 7H9/CAS/GLU/Tx 7 Days.
The mark [8] stands for this setting: Mycobacterium tuberculosis, H37RV, both media (CAS and ADC) or medium not given, read-out: MIC90.
The mark [9] stands for this setting: protein-poor media, 7 days, read-out: MIC90 7H9/CAS/GLU/Tx 7 Days.

In brackets after ≈: the same amount, converted by molar mass. Several values for one entry are separate records, joined by “and”; a condition that tells them apart may be missing. Identical values can stand only once. Like-named read-outs stand apart in the source and are kept apart here. Where only a bound is given, the exact number is not on record here.

As for `O=C(Nc1nc2ccc(F)cc2s1)n1ccnc1` [Compound 5b], the MIC90 in data set [1] (setting [4]) and in data set [2] (setting [5]) was above 125 µM throughout.

As for `O=C(NCCCNc1ccnc2cc(Cl)ccc12)Nc1nc2ccc(F)cc2s1` [Compound 6n, 1-(6-Fluorobenzo[d]thiazol-2-yl)-3-(3-((7-chloroquinolin-4-yl)amino)propyl)urea], the melting point lay within 241 to 243 °C. Besides, in data set [1] (setting [6]), the MIC90 result is recorded as “devoid of any activity”. Further, the MIC90 in data set [1] (setting [4]) is above 125 µM. Further, the MIC90 in data set [2] (setting [5]) turned out to be 125 µM (≈ 53.7 µg/mL).

For `O=C(NNc1ccnc2cc(Cl)ccc12)Nc1nc2ccc([N+](=O)[O-])cc2s1` [Compound 6d, 2-(7-Chloroquinolin-4-yl)-N-(6-nitrobenzo[d]thiazol-2-yl)hydrazine-1-carboxamide], the MIC90 in data set [1] (setting [4]) and in data set [2] (setting [5]) was above 125 µM throughout.

As to `NCCCCCCNc1ccnc2cc(Cl)ccc12` [Compound 2e], the MIC90 in data set [1] (setting [4]) and in data set [2] (setting [5]) was above 125 µM throughout.

As to `Cc1ccc2nc(NC(=O)NC(C)CNc3ccnc4cc(Cl)ccc34)sc2c1` (stereo not shown) [Compound 6x, 1-(1-((7-Chloroquinolin-4-yl)amino)propan-2-yl)-3-(6-methylbenzo[d]thiazol-2-yl)urea], the melting point is 229 to 231 °C. For the same compound, in data set [3], the viability at 24 h was 96% and the IC20 at 24 h was 16.2 µM. The MIC90 in data set [1] (setting [4]) came out at 7.22 µM (≈ 3.07 µg/mL). In addition, the MIC90 in data set [2] (setting [5]) stood at 10.3 µM (≈ 4.41 µg/mL).

On to `O=C(NCCNc1ccnc2cc(Cl)ccc12)Nc1nc2ccc(F)cc2s1` [Compound 6h, 1-(6-Fluorobenzo[d]thiazol-2-yl)-3-(2-((7-chloroquinolin-4-yl)amino)ethyl)urea], for which the MIC stood at 62.5 µM (≈ 26 µg/mL) in data set [1] (setting [7]) and 62.5 µM (≈ 26 µg/mL) in data set [2] (Mycobacterium tuberculosis, 168 h). Also, the MIC90 in data set [1] (setting [8]) stood at 62.5 µM (≈ 26 µg/mL).

On to `Cc1ccc2nc(NC(=O)NCCCNc3ccnc4cc(Cl)ccc34)sc2c1` [Compound 6k, 1-(3-((7-Chloroquinolin-4-yl)amino)propyl)-3-(6-methylbenzo[d]thiazol-2-yl)urea], for which the melting point fell in the range of 234 to 239 °C. For the same compound, in data set [3], the viability at 24 h came to 93% and the IC20 at 24 h is 42.7 µM. Besides, in data set [1] (setting [4]), the MIC90 came out at 31.2 µM (≈ 13.3 µg/mL). Moreover, the MIC90 in data set [2] (setting [5]) turned out to be 62.3 µM (≈ 26.5 µg/mL).

Regarding `O=C(NCCCNc1ccnc2cc(Cl)ccc12)Nc1nc2ccc(Br)cc2s1` [Compound 6m, 1-(6-Bromobenzo[d]thiazol-2-yl)-3-(3-((7-chloroquinolin-4-yl)amino)propyl)urea], the melting point is 254 to 257 °C. Also, in data set [3], the viability at 24 h is 100% and the IC20 at 24 h is 25.1 µM. For the same compound, in data set [1] (setting [4]), the MIC90 amounted to 15.9 µM (≈ 7.82 µg/mL). For the same compound, the MIC90 in data set [2] (setting [5]) is 16.9 µM (≈ 8.28 µg/mL).

Regarding `CC(CNc1ccnc2cc(Cl)ccc12)NC(=O)Nc1nc2ccc(C(F)(F)F)cc2s1` (stereo not shown) [Compound 6u, 1-(1-((7-Chloroquinolin-4-yl)amino)propan-2-yl)-3-(6-(trifluoromethyl)benzo[d]thiazol-2-yl)urea], the viability at 24 h in data set [3] came out at 100%. The IC20 at 24 h in data set [3] was 6.01 µM. In addition, the MIC90 is 0.968 µM (≈ 0.465 µg/mL) in data set [1] (setting [9]), 0.97 µM (≈ 0.466 µg/mL) in data set [1] (setting [4]), 5.732 µM (≈ 2.75 µg/mL) in data set [2] and 5.73 µM (≈ 2.75 µg/mL) in data set [2] (setting [5]).

As to `O=C(NNc1ccnc2cc(Cl)ccc12)Nc1nc2ccccc2s1` [Compound 6a, N-(Benzo[d]thiazol-2yl)-2-(7-chloroquinolin-4-yl)hydrazine-1-carboxamide], in data set [3], the viability at 24 h is 75%. The IC20 at 24 h in data set [3] is 15.1 µM. The MIC90 in data set [1] (setting [9]) is 21.001 µM (≈ 7.77 µg/mL); in data set [1] (setting [4]), 21 µM (≈ 7.77 µg/mL); in data set [2] (setting [5]) it was above 125 µM.

Consider `O=C(NCCCCCCNc1ccnc2cc(Cl)ccc12)Nc1nc2ccc(F)cc2s1` [Compound 6t, 1-(6-((7-Chloroquinolin-4-yl)amino)hexyl)-3-(6-fluorobenzo[d]thiazol-2-yl)urea], for which the melting point was in the range of 256 to 259 °C. Besides, in data set [3], the viability at 24 h came to 92% and the IC20 at 24 h is 12.9 µM. The MIC90 in data set [1] (setting [4]) worked out at 6.97 µM (≈ 3.29 µg/mL). Also, the MIC90 in data set [1] (setting [8]) lay in the range of 6.97 to 31.2 µM (≈ 3.29 to 14.7 µg/mL). Further, the MIC90 in data set [2] (setting [5]) came to 31.2 µM (≈ 14.7 µg/mL).

In turn, `CC(CNc1ccnc2cc(Cl)ccc12)NC(=O)Nc1nc2ccc(Br)cc2s1` (stereo not shown) [Compound 6w, 1-(1-((7-Chloroquinolin-4-yl)amino)propan-2-yl)-3-(6-bromobenzo[d]thiazol-2-yl)urea] returned a melting point of 246 to 248 °C. In addition, in data set [3], the viability at 24 h is 19% and the IC20 at 24 h was 3.38 µM. Moreover, the MIC90 in data set [1] (setting [4]) was 8.19 µM (≈ 4.02 µg/mL). Besides, the MIC90 in data set [2] (setting [5]) is 14 µM (≈ 6.87 µg/mL).

With `CO[C@H]1/C=C/O[C@@]2(C)Oc3c(C)c(O)c4c(O)c(c(/C=N/N5CCN(C)CC5)c(O)c4c3C2=O)NC(=O)/C(C)=C\C=C\[C@H](C)[C@H](O)[C@@H](C)[C@@H](O)[C@@H](C)[C@H](OC(C)=O)[C@@H]1C` [RIF, Rifampicin, reference compound], the MIC90 is 0.03 µM (≈ 0.0247 µg/mL) in data set [1] (setting [4]) and 0.001 µM (≈ 0.000823 µg/mL) in data set [2] (setting [5]).

As for `NC(N)=O` [Urea], the MIC90 in data set [1] (setting [9]) and in data set [2] was above 125 µM throughout.

`O=C(NCCCCCCNc1ccnc2cc(Cl)ccc12)Nc1nc2ccc(Cl)cc2s1` [Compound 6r, 1-(6-Chlorobenzo[d]thiazol-2-yl)-3-(6-((7-chloroquinolin-4-yl)amino)hexyl)urea]: the melting point fell in the range of 239 to 241 °C. Moreover, in data set [3], the viability at 24 h was 72% and the IC20 at 24 h was 5.47 µM. For the same compound, the MIC90 in data set [1] (setting [4]) was 7.6 µM (≈ 3.71 µg/mL). Moreover, in data set [2] (setting [5]), the MIC90 came to 14.6 µM (≈ 7.14 µg/mL).

For the compound `CC(CNc1ccnc2cc(Cl)ccc12)NC(=O)Nc1nc2ccc(F)cc2s1` (stereo not shown) [Compound 6v, 1-(1-((7-Chloroquinolin-4-yl)amino)propan-2-yl)-3-(6-fluorobenzo[d]thiazol-2-yl)urea], the melting point fell in the range of 228 to 230 °C. In addition, the MIC90 in data set [1] (setting [4]) is above 125 µM. Further, in data set [2] (setting [5]), the MIC90 was above 125 µM.

`O=C(NNc1ccnc2cc(Cl)ccc12)Nc1nc2ccc(F)cc2s1` [Compound 6c, 2-(7-Chloroquinolin-4-yl)-N-(6-fluorobenzo[d]thiazol-2-yl)hydrazine-1-carboxamide]: the MIC90 in data set [1] (setting [4]) and in data set [2] (setting [5]) was above 125 µM each time.

Compound `O=C(NCCNc1ccnc2cc(Cl)ccc12)Nc1nc2ccc(C(F)(F)F)cc2s1` [Compound 6e, 1-(2-((7-Chloroquinolin-4-yl)amino)ethyl)-3-(6-(trifluoromethyl)benzo[d]thiazol-2-yl)urea] yielded a melting point of 249 to 251 °C.

With `O=C(NCCCCNc1ccnc2cc(Cl)ccc12)Nc1nc2ccc(Cl)cc2s1` [Compound 6o, 1-(6-Chlorobenzo[d]thiazol-2-yl)-3-(4-((7-chloroquinolin-4-yl)amino)butyl)urea], the melting point was 189 to 191 °C and 189.8 to 191.3 °C. Moreover, in data set [3], the viability at 24 h came to 30% and the IC20 at 24 h was 2.13 µM. Further, the MIC in data set [1] (setting [7]) was 7.43 µM (≈ 3.42 µg/mL). In data set [1] (setting [4]), the MIC90 was found to be 7.46 µM (≈ 3.43 µg/mL). For the same compound, the MIC90 in data set [2] (setting [5]) came to 23.5 µM (≈ 10.8 µg/mL).

`O=C(NCCCNc1ccnc2cc(Cl)ccc12)Nc1nc2ccc(Cl)cc2s1` [Compound 6j, 1-(6-Chlorobenzo[d]thiazol-2-yl)-3-(3-((7-chloroquinolin-4-yl)amino)propyl)urea] had a melting point of 286 to 288 °C. For the same compound, in data set [3], the viability at 24 h was 86% and the IC20 at 24 h is 26.3 µM. In addition, the MIC90 in data set [1] (setting [9]) stood at 4.389 µM (≈ 1.96 µg/mL). The MIC90 in data set [1] (setting [4]) was 4.39 µM (≈ 1.96 µg/mL). In addition, the MIC90 in data set [2] (setting [5]) came to 11.7 µM (≈ 5.24 µg/mL).

As for `O=C(NCCCNc1ccnc2cc(Cl)ccc12)Nc1nc2ccccc2s1` [Compound 6l, 1-(3-((7-Chloroquinolin-4-yl)amino)propyl)-3-(benzo[d]thiazol-2-yl)urea], in data set [3], the viability at 24 h was 100%. Also, the IC20 at 24 h in data set [3] is 105 µM. The MIC90 amounted to 9.63 µM (≈ 3.97 µg/mL) in data set [1] (setting [4]), 9.447 µM (≈ 3.89 µg/mL) in data set [2] and 9.45 µM (≈ 3.89 µg/mL) in data set [2] (setting [5]).

Compound `O=C(NCCCCNc1ccnc2cc(Cl)ccc12)Nc1nc2ccc(F)cc2s1` [Compound 6q, 1-(6-Fluorobenzo[d]thiazol-2-yl)-3-(4-((7-chloroquinolin-4-yl)amino)butyl)urea] gave a melting point of 256 to 259 °C. Moreover, the MIC90 entry in data set [1] (setting [6]) is on record as “not active at all”. Moreover, the MIC90 in data set [1] (setting [4]) is above 125 µM. Moreover, the MIC90 in data set [2] (setting [5]) is above 125 µM.

As for `O=C(NCCCCCCNc1ccnc2cc(Cl)ccc12)Nc1nc2ccc(Br)cc2s1` [Compound 6s, 1-(6-Bromobenzo[d]thiazol-2-yl)-3-(6-((7-chloroquinolin-4-yl)amino)hexyl)urea], the melting point fell in the range of 192 to 194 °C. In addition, in data set [3], the viability at 24 h stood at 76% and the concentration for an effect of 20% (IC20) at 24 h was 7.02 µM. The MIC90 in data set [1] (setting [4]) amounted to 8.76 µM (≈ 4.67 µg/mL). For the same compound, in data set [2] (setting [5]), the MIC90 is 21 µM (≈ 11.2 µg/mL).

In the case of `O=C(NCCNc1ccnc2cc(Cl)ccc12)Nc1nc2ccc(Cl)cc2s1` [Compound 6f, 1-(6-Chlorobenzo[d]thiazol-2-yl)-3-(2-((7-chloroquinolin-4-yl)amino)ethyl)urea], the melting point was 244 to 245 °C. The MIC90 in data set [1] (setting [4]) is 125 µM (≈ 54 µg/mL). For the same compound, the MIC90 in data set [2] (setting [5]) is above 125 µM.

`O=C(NNc1ccnc2cc(Cl)ccc12)Nc1nc2ccc(C(F)(F)F)cc2s1` [Compound 6b, 2-(7-Chloroquinolin-4-yl)-N-(6-(trifluoromethyl)benzo[d]thiazol-2-yl)hydrazine-1-carboxamide]: the MIC90 entry in data set [1] (setting [6]) was “excellent activity in both media”; in data set [1] (setting [4]) it was 4.94 µM (≈ 2.16 µg/mL); in data set [2] (setting [5]), 6.85 µM (≈ 3 µg/mL).

By melting point is commonly meant the temperature, or range, at which the solid turns liquid. The viability is a per cent measure of how many cells are alive, often set against a control. A low value points to a greater loss of cells. In general, IC20 refers to the concentration at which the effect reaches the 20% level.
